From PMC6150173, “Tryptophan-Containing Cyclic Decapeptides with Activity against Plant Pathogenic Bacteria” (Molecules : A Journal of Synthetic Chemistry and Natural …, 2017)
Values joined by “and” are separate entries in the source; they are usually repeats but may differ in a detail not shown here. Identical values can stand only once. Peptide text beside a SMILES is read from it.

Key:
[1] = system: Pseudomonas syringae pv. syringae, Xanthomonas axonopodis pv. vesicatoria, and Erwinia amylovora; conditions: cited from earlier work
Source text: Combinatorial chemistry constitutes a powerful tool to obtain peptides with improved biological activity against plant pathogens. In particular, we have employed this methodology to design and synthesize a library of cyclic decapeptides with general structure c(X5-Phe-X3-Gln) where X is Lys or Leu. Analysis of internal structural features together with a design of experiments (DOE) allowed establishing the sequence pattern for an optimal biological activity, i.e., c(X^1X^2X^3X^4LysPheLysLysLeuGln) where X^2 ≠ X^3 and X^4 = Lys. […] Cyclic peptides are preferred candidates due to their high conformational rigidity and proteolytic stability. In a previous work, a library of 66 Phe-containing cyclic decapeptides was synthesized from which sequences with high activity against E. amylovora, P. syringae pv. syringae, and X. axonopodis pv. vesicatoria were identified, highlighting c(LysLysLeuLysLysPheLysLysLeuGln) ... || The results obtained support the notion that subtle changes in a peptide sequence may lead to a significant modification of its biological activity. Thus, for example, the Phe→Trp substitution in the lead peptides c(LysLysLeuLysLysPheLysLysLeuGln) (BPC194) and c(LysLeuLysLysLysPheLysLysLeuGln) (BPC198) caused a reduction of the activity. […]

[2] = system: Erwinia amylovora PMV6076; test: Antibacterial activity (MIC), in vitro growth inhibition; format: cell-based; conditions: Table S1, MIC range
Outline: (§1)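 MIC determined by in vitro growth inhibition across 0.8, 1.6, 3.1, 6.2, 12.5, 25 and 50 μM peptide. Strains tested: E. amylovora PMV6076, P. syringae pv. syringae EPS94 and X. axonopodis pv. vesicatoria 2133-2.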

[3] = system: Pseudomonas syringae pv. syringae EPS94; test: as above; format: cell-based; conditions: Table S1, MIC range
Outline: as §1

[4] = system: Xanthomonas axonopodis pv. vesicatoria 2133-2; format: cell-based; conditions: Table S1, MIC range
Outline: as §1

[5] = system: erythrocyte suspensions of human blood; test: Hemolytic activity, hemoglobin release; format: cell-based; conditions: human blood erythrocytes 5% v/v, absorbance 540 nm, percentage compared to melittin, three replicates; for Hemolysis (%) at 50 µM: peptide 50 μM (table prints 50 µM); for Hemolysis (%) at 125 µM: peptide 125 μM (table prints 125 µM)
Method: The hemolytic activity of the compounds was evaluated at 50 and 125 μM by determining hemoglobin release from erythrocyte suspensions of human blood (5% v/v) (Oxoid) using absorbance at 540 nm, as previously described. Three replicates for each peptide concentration were used.

Molecule	antibacterial activity in words, Phe peptides [1]	MIC Ea [2]	MIC Pss [3]	MIC Xav [4]	Hemolysis (%) at 50 µM [5]	Hemolysis (%) at 125 µM [5]
cyclo(LKKKKFLLKQ) [BPC108]	poorly active	–	–	–	–	–
cyclo(LKKKLFKKLQ) [BPC086]	poorly active	–	–	–	–	–
CC(C)C[C@@H]1NC(=O)[C@H](CCC(N)=O)NC(=O)[C@H](CCCCN)NC(=O)[C@H](CCCCN)NC(=O)[C@H](CC(C)C)NC(=O)[C@H](Cc2c[nH]c3ccccc23)NC(=O)[C@H](CCCCN)NC(=O)[C@H](CC(C)C)NC(=O)[C@H](CCCCN)NC(=O)[C@H](CCCCN)NC1=O [BPC140W, c(LKKLKWLKKQ)] (cyclo(KKLKWLKKQL))	–	12.5 to 25 µM	6.2 to 12.5 µM	3.1 to 6.2 µM	31%	37%
CC(C)C[C@@H]1NC(=O)[C@H](CCCCN)NC(=O)[C@H](CCC(N)=O)NC(=O)[C@H](CC(C)C)NC(=O)[C@H](CC(C)C)NC(=O)[C@H](CCCCN)NC(=O)[C@H](Cc2c[nH]c3ccccc23)NC(=O)[C@H](CCCCN)NC(=O)[C@H](CCCCN)NC(=O)[C@H](CCCCN)NC1=O [BPC066W, c(KLKKKWKLLQ)] (cyclo(KKKWKLLQKL))	–	6.2 to 12.5 µM	6.2 to 12.5 µM	6.2 to 12.5 µM	33%	41%
CC(C)C[C@@H]1NC(=O)[C@H](CCC(N)=O)NC(=O)[C@H](CCCCN)NC(=O)[C@H](CC(C)C)NC(=O)[C@H](CC(C)C)NC(=O)[C@H](Cc2c[nH]c3ccccc23)NC(=O)[C@H](CCCCN)NC(=O)[C@H](CCCCN)NC(=O)[C@H](CCCCN)NC(=O)[C@H](CCCCN)NC1=O [BPC108W, c(LKKKKWLLKQ)] (cyclo(KKKKWLLKQL))	–	6.2 to 12.5 µM	1.6 to 3.1 µM	1.6 to 3.1 µM	4%	5% and ≤ 8%
CC(C)C[C@@H]1NC(=O)[C@H](CCCCN)NC(=O)[C@H](Cc2c[nH]c3ccccc23)NC(=O)[C@H](CCCCN)NC(=O)[C@H](CCCCN)NC(=O)[C@H](CCCCN)NC(=O)[C@H](CC(C)C)NC(=O)[C@H](CC(C)C)NC(=O)[C@H](CCC(N)=O)NC(=O)[C@H](CCCCN)NC1=O [BPC126W, c(LLKKKWKLKQ)] (cyclo(KKKWKLKQLL))	–	25 to 50 µM	6.2 to 12.5 µM	1.6 to 3.1 µM	5%	9%
CC(C)C[C@@H]1NC(=O)[C@H](CCCCN)NC(=O)[C@H](CC(C)C)NC(=O)[C@H](CCC(N)=O)NC(=O)[C@H](CCCCN)NC(=O)[C@H](CCCCN)NC(=O)[C@H](CC(C)C)NC(=O)[C@H](Cc2c[nH]c3ccccc23)NC(=O)[C@H](CCCCN)NC(=O)[C@H](CCCCN)NC1=O [BPC144W, c(LKLKKWLKKQ)] (cyclo(KKQLKLKKWL))	–	12.5 to 25 µM	3.1 to 6.2 µM	1.6 to 3.1 µM	16%	21%
CC(C)C[C@@H]1NC(=O)[C@H](CCCCN)NC(=O)[C@H](CC(C)C)NC(=O)[C@H](CCC(N)=O)NC(=O)[C@H](CC(C)C)NC(=O)[C@H](CCCCN)NC(=O)[C@H](CCCCN)NC(=O)[C@H](Cc2c[nH]c3ccccc23)NC(=O)[C@H](CCCCN)NC(=O)[C@H](CCCCN)NC1=O [BPC096W, c(LKLKKWKKLQ)] (cyclo(KKLQLKLKKW))	–	12.5 to 25 µM	6.2 to 12.5 µM	1.6 to 3.1 µM	10%	15%
CC(C)C[C@@H]1NC(=O)[C@H](CCCCN)NC(=O)[C@H](CC(C)C)NC(=O)[C@H](Cc2c[nH]c3ccccc23)NC(=O)[C@H](CC(C)C)NC(=O)[C@H](CCCCN)NC(=O)[C@H](CCCCN)NC(=O)[C@H](CCCCN)NC(=O)[C@H](CCCCN)NC(=O)[C@H](CCC(N)=O)NC1=O [BPC070W, c(KKKKLWLKLQ)] (cyclo(KKKKLWLKLQ))	–	12.5 to 25 µM	6.2 to 12.5 µM	1.6 to 3.1 µM	6%	9%
CC(C)C[C@@H]1NC(=O)[C@H](CCCCN)NC(=O)[C@H](Cc2c[nH]c3ccccc23)NC(=O)[C@H](CCCCN)NC(=O)[C@H](CC(C)C)NC(=O)[C@H](CC(C)C)NC(=O)[C@H](CCCCN)NC(=O)[C@H](CCCCN)NC(=O)[C@H](CCC(N)=O)NC(=O)[C@H](CCCCN)NC1=O [BPC118W, c(KKLLKWKLKQ)] (cyclo(KKLLKWKLKQ))	–	12.5 to 25 µM	6.2 to 12.5 µM	12.5 to 25 µM	4%	4%
CC(C)C[C@@H]1NC(=O)[C@H](CCCCN)NC(=O)[C@H](CCCCN)NC(=O)[C@H](CCC(N)=O)NC(=O)[C@H](CC(C)C)NC(=O)[C@H](CCCCN)NC(=O)[C@H](CC(C)C)NC(=O)[C@H](Cc2c[nH]c3ccccc23)NC(=O)[C@H](CCCCN)NC(=O)[C@H](CCCCN)NC1=O [BPC074W, c(KKLKKWLKLQ)] (cyclo(KKLKKWLKLQ))	–	12.5 to 25 µM	6.2 to 12.5 µM	1.6 to 3.1 µM	39%	50%
CC(C)C[C@@H]1NC(=O)[C@H](CCC(N)=O)NC(=O)[C@H](CC(C)C)NC(=O)[C@H](CC(C)C)NC(=O)[C@H](CCCCN)NC(=O)[C@H](Cc2c[nH]c3ccccc23)NC(=O)[C@H](CCCCN)NC(=O)[C@H](CCCCN)NC(=O)[C@H](CCCCN)NC(=O)[C@H](CCCCN)NC1=O [BPC068W, c(LKKKKWKLLQ)] (cyclo(KKKKWKLLQL))	–	25 to 50 µM	6.2 to 12.5 µM	1.6 to 3.1 µM	6%	7%
